Measured values reported in US20020090619A1, “Methods for identifying mitochondrial divalent cation transporters” (priority 2000, published 2002).

Assays:
[1] = tested on: yeast mitochondria; test: Membrane potential ΔΨ of isolated yeast mitochondria (safranin O); assay type: biochemical, Saccharomyces cerevisiae
Procedure: (§1) The yeast strain W303-1A (Saccharomyces cerevisiae) was grown aerobically at 30° C. in a medium containing 2% lactate, 1% yeast extract, 2% peptone, 0.05% dextrose, and 0.01% adenine at pH 5.0, and cells were harvested during the logarithmic phase (A600=1.8−2.2). Mitochondria were isolated from spheroplasts as previously described (Jung et al., 1997 J. Biol. Chem. 272:21104), except that 0.6 M sucrose was used in the homogenization medium instead of 0.6 M mannitol (Daum et al., 1982 J. Biol. Chem. 257:13028). The resulting preparations were maintained on ice and were suspended in 0.6 M mannitol 20 mM HEPES (K+) (pH 6.8), containing 0.75 mg/ml BSA and 0.1 mM EGTA. Protein concentration was determined by a reduced volume Biuret method in which 50 μl of the final preparation were solubilized by adding an equal volume of 10% deoxycholate (Na+), with 0.4 ml of Biuret reagent added to the resulting mixture. BSA was employed as the standard.
Unless otherwise noted, mitochondria were incubated at 1 mg protein/ml and at approximately 25° C. in a medium that contained 0.6 M mannitol, 10 mM Pi (K+), 10 mM Hepes (TEA+), pH 7.2, plus 1 mM ethanol as an oxidizable substrate. Compounds having a low solubility in water were added from stock solutions prepared in methanol or DMSO. Ca2+ transport and membrane potential were monitored using the indicating dyes antipyrylazo III (ΔA720-790) and safranin O (ΔA511-533), respectively (Akerman et al., 1976 FEBS Lett. 68:191; Scarpa et al., 1978 Biochem. 17:1378). An SLM Aminco DW-2C spectrophotometer operated in the dual wavelength mode was employed for these purposes. The same instrument, operated in split beam mode, was used to monitor mitochondrial swelling as a decrease in apparent absorbance of mitochondrial suspensions at 540 nm. Oxygen consumption data were obtained using a Clark-type electrode in parallel experiments. Atomic absorption spectroscopy was utilized to monitor the transport of other cations by yeast mitochondria. Briefly, samples were taken at appropriate times and the mitochondria were rapidly sedimented in a microcentrifuge. After carefully removing supernatants, the pellets were solubilized with 2 N percholoric acid (overnight) and centrifuged a second time. The resulting supernatants were diluted with an appropriate volume of distilled water and the concentration of the cation in question was subsequently determined.

[2] = tested on: isolated yeast mitochondria; test: Ca2+ transport in isolated yeast mitochondria expressing aequorin (luminescence); assay type: biochemical, Saccharomyces cerevisiae; details: FIG. 24
Procedure: For preculture, the transformant was inoculated into 50 ml of SC-U plus 2% glucose, and incubated in an air shaker at 180 rpm and 30° C. At 24 hr, the preculture was transferred to 500 ml of a medium containing 1% yeast extract, 2% peptone, 2% lactate, 1% galactose, 0.012% adenine, pH 5 w/NaOH, and growth was continued under conditions which were otherwise the same. Cells were harvested after an additional 24 hr, spheroplasts were prepared using zymolyase, and mitochondria were isolated by the method of Daum et al. (1982) as previously described (Jung et al., 1997). The final pellet was resuspended at ˜20 mg protein/ml in 0.6 M mannitol, 20 mM HEPES (K^+ salt, pH 6.8). Apoaequorin in the intact or disrupted mitochondria was reconstituted by incubation with coelenterazine as described above for cells.
For most experiments, the mitochondria were present at 0.4 mg protein/ml in a standard medium that contained 0.3 M KCl, 20 mM HEPES, (K^+ salt, pH 7.10), 10 mM KH2PO4, 2 mM EGTA, and 2 mM MgCl2. Other additions are described in greater detail below. Ca^2+ buffers were formed by adding various amounts of CaCl2 to this EGTA containing medium. The free Ca^2+ concentrations which resulted were calculated using a computer program (Brooks et al., 1992 Anal. Biochem. 201:119).
Luminescence measurements were carried out in 6×50 mm culture tubes, using a total volume of 0.3 ml, and were started by injection of 5-20 μl of mitochondria or cells. A SAI model 3000 integrating photometer was employed, with AJD sampling at 0.4 seconds intervals driven by Asyst software. Values were transformed into corresponding Ca^2+ concentrations by computer assisted calculations based upon published calibration methods (Allen et al., 1977 Science 195:996; Brini et al., 1995 J. Biol. Chem. 270:9896). For each value, the ratio of observed luminescence (L) to the potential luminescence remaining (Lmax) was calculated, and compared to a calibration curve which relates this ratio to the free Ca^2+ concentration. Thus, complete calibrated progress curves were generated. The total luminescence available initially (Ltotal) must be known and was determined in separate experiments, wherein a saturating Ca^2+ concentration (20 μM) is employed to discharge the aequorin completely. This value allows Lmax to be calculated at any time, as Ltotal minus the sum of luminescence that already occurred.
The calibration data were obtained at an ionic strength of 335 mM and in the presence of 1 mM Mg^2+, to mimic conditions in the mitochondrial matrix, because both factors influence the affinity of aequorin for Ca2+ (Cobbold et al., 1987 Biochem. J. 248:313). Luminescence values were corrected for low background values that are obtained when Ca^2+ is absent before conducting further calculations.

[3] = tested on: Saccharomyces cerevisiae strain K473; test: Growth inhibition by Ca2+ of pmc1 mutant yeast; assay type: cell-based; details: YPD medium, 30° C., 22 hr; read-out: 50% decrease in relative growth (IC50)
Procedure: This example describes growth inhibition by Ca^2+ of Saccharomyces cerevisiae strain K473, a pmc1 mutant lacking function in a vacuolar Ca2+ ATPase (Cunningham et al., 1996, Molec. Cell. Biology 16:2226-37; Cunningham et al., 1994 J. Cell Biol. 124:351-363). The strain was grown at 30° C. on standard YPD medium supplemented with 0, 50, 100, 200 or 300 mM CaCl2, as indicated. […]

[4] = tested on: PMC1/PMR1 double ATPase mutant cells; details: Cunningham et al., 1994; cited from earlier work
[5] = ETH 129 mediated cation transport into Quin-2 loaded POPC vesicles; assay type: biochemical; details: 1.0 mM CaCl2, no Val, FIG. 5
Procedure: Unilamellar vesicles loaded with Quin-2 were prepared from 1-palmitoyl-2-oleoyl-sn-glycerophosphatidylcholine (POPC) by freeze-thaw extrusion (Erdahl et al., 1994 Biophys. J. 66:1678; Erdahl et al., 1995 Biophys. J. 69:2350). The formation medium contained 5 mM Quin-2 (K+), 10 mM Hepes (K+), pH 7.00, and 100 mM KCl. A high internal K+ concentration was sought to allow the generation of membrane potentials of varying magnitude (see below). The preparations obtained were applied to Sephadex™ G-50 mini-columns (Pharmacia, Piscataway N.J.) and eluted by low speed centrifugation (Fry et al., 1978 Anal. Biochem. 90:809), to replace the external medium with a 10 mM Hepes buffer (Na+), pH 7.00 (Erdahl et al., 1994 Biophys. J. 66:1678; Erdahl et al., 1995 Biophys. J. 69:2350). The nominal concentration of POPC in final preparations was determined as lipid phosphorus (Bartlett, 1959 J Biol. Chem. 234:466) and was near 80 mM. The average diameter of these vesicles was 71 nm as determined by freeze-fracture electron microscopy (Chapman et al., 1990 Chem. Phys. Lipids 55:73). They contained entrapped K+ at approximately 125 mM, as determined by atomic absorption spectroscopy, and Quin-2 at approximately 6 mM. The latter value was determined by titrating lysed vesicles with a standard solution of CaCl2 and was about one third of the expected value (Erdahl et al., 1995 Bipohys. J. 69:3250). The high solute level in the formation medium reduced the efficiency of Quin-2 entrapment by reducing the effectiveness of a freeze-thaw driven solute concentrating mechanism that normally elevates the internal concentrations of solutes, relative to the external medium (Chapman et al., 1990 Chem. Phys. Lipids 55:73; Chapman et al., 1990 Chem. Phys. Lipids 60:201).
POPC vesicles containing Quin-2 were utilized at a nominal phospholipid concentration of 1.0 mM, and at 25° C. The external medium contained polyvalent cation salts as described below, 100 mM NaCl, or mixtures of NaCl and KCl totaling […], and 10 mM Hepes, pH 7.00, unless otherwise noted. The medium pH was adjusted with NaOH that had been passed over Chelex 100 columns to remove contaminating cations (Erdahl et al., 1994 Biophys. J. 66:1678). In most cases an inside negative membrane electrical potential was present during the experiments. This was generated by the presence of 0.5 μM valinomycin (Val), which transports K+ out of the vesicles electrogenically (Erdahl et al., 1994 Biophys. J. 66:1678). The magnitude of the potential was controlled by varying the concentration ratio of Na+ to K+ in the external medium. A TPP+electrode was used to measure the potential (Broekemeier et al, 1998 Biochem. 37:13059), and thereby to verify that the calculated values were obtained. For these purposes the incubation medium contained 2.0 μM TPP.Cl and the entrapped volume was taken to be 2.02 μl/ml at a nominal POPC concentration of 1.0 mM (Chapman et al., 1990 Chem. Phys. Lipids 55:73).
Val was omitted when an imposed membrane potential was not desired, or in some cases 5 μM of the protonophore carbonyl cyanide m-chlorophenylhydrazone (CCP) was present instead of Val.
The transport of polyvalent cations was monitored by difference absorbance measurements which detected formation of the Quin-2:cation complex within the vesicle lumen. An Aminco DW2a spectrophotometer operated in the dual wavelength mode was employed. In addition, an Oriel No. 59800 band pass filter was used between the cuvette and the beam scrambler-photomultiplier assembly to prevent detection of the fluorescent light emitted by Quin-2. The sample wavelength for all cations was 264 nm. The reference wavelengths were at an isosbestic point in the Quin-2/Quin-2:cation complex difference spectrum of interest. These wavelengths varied slightly from cation to cation, as previously described (Erdahl et al., 1996 Biochem. 35:13817). […]

[6] = tested on: yeast mitochondria; test: ETH 129 mediated Ca2+ transport in isolated yeast mitochondria (antipyrylazo III); assay type: biochemical, Saccharomyces cerevisiae; details: BSA 0.5 mg/ml, 60 μM CaCl2, 3.6 μM ETH 129, increasing oleate, FIG. 14
Procedure: as §1, with “BSA was employed as the standard.” left out
Unless otherwise noted, mitochondria were incubated at 1 mg protein/ml and at approximately 25° C. in a medium that contained 0.6 M mannitol, 10 mM Pi (K+), 10 mM Hepes (TEA+), pH 7.2, plus 1 mM ethanol as an oxidizable substrate. […] Ca2+ transport and membrane potential were monitored using the indicating dyes antipyrylazo III (ΔA720-790) and safranin O (ΔA511-533), respectively (Akerman et al., 1976 FEBS Lett. 68:191; Scarpa et al., 1978 Biochem. 17:1378). […]

Structure (SMILES)	effect on ΔΨ, agent alone ([1]; BSA absent, FIG. 11B)	external Ca2+ giving half-maximal rate of change in matrix Ca^2+ ([2]; nonrespiring mitochondria)	external Ca2+ giving half-maximal rate of change in matrix Ca^2+ ([2]; respiring mitochondria (0.5 mM ethanol))	IC50 [3]	cytostatic Ca^2+ concentrations [4]	activation of ETH 129 mediated Ca2+ transport [5]	effect of exogenous oleate on ETH 129 mediated Ca2+ accumulation [6]	suppression of ΔΨ during titration with exogenous oleate ([1]; ETH 129, free Ca2+ and BSA available, no EGTA, FIG. 16)	oleate level above which ΔΨ is depressed ([1]; excess EGTA (2 mM), ETH 129, CaCl2, BSA present, FIG. 16)
[Ca+2] [Ca2+]	little effect	0.82 µM	1.0 µM	92 mM	≤ 300 µM				
CCCCCCCC/C=C\CCCCCCCC(=O)O [oleate, oleic acid]						inability of oleate (a lipophilic fatty acid anion) to substitute for CCP	first inhibited further accumulation and then caused a reversal of the transport that had already occurred	began immediately	exceeded 15 nmol/mg protein
